In ChEMBL document CHEMBL2069259, “Preclinical strategy to reduce clinical hepatotoxicity using in vitro bioactivation data for >200 compounds” (Chem Res Toxicol, 2012):
Starred links: 1 amine or outer side, 2 acyl side, 3 side chain; linkers in the order of their positions; H or OH if unused. Positions of bridges follow the written chain, without caps; N, C: chain ends. Non-standard residues stand in square brackets, D forms with d. Residues, ends and D or L forms follow the SMILES beside them. Chains are numbered I, II in the order given. Actinocin(9to1) = Cc1c2oc3c(C)ccc(C(=O)[*:1])c3nc-2c(C(=O)[*:2])c(N)c1=O; NMeV = CN[C@H](C(=O)O)C(C)C; Sar = CNCC(=O)O

What was measured:
Liver microsomes [1] = experiment: Metabolic stability in human liver microsomes assessed as GSH adduct formation at 100 uM after 90 mins by HPLC-MS analysis; details: 1.5 h
CYP2C9 = CYP2C9 (Homo sapiens, UniProt P11712); experiment: Inhibition of human CYP2C9 assessed as ratio of IC50 in absence of NADPH to IC50 for presence of NADPH using 7-methoxy-4-trifluoromethylcoumarin-3-acetic acid as substrate after 30 mins
CYP2C9, sequence (P11712 whole entry): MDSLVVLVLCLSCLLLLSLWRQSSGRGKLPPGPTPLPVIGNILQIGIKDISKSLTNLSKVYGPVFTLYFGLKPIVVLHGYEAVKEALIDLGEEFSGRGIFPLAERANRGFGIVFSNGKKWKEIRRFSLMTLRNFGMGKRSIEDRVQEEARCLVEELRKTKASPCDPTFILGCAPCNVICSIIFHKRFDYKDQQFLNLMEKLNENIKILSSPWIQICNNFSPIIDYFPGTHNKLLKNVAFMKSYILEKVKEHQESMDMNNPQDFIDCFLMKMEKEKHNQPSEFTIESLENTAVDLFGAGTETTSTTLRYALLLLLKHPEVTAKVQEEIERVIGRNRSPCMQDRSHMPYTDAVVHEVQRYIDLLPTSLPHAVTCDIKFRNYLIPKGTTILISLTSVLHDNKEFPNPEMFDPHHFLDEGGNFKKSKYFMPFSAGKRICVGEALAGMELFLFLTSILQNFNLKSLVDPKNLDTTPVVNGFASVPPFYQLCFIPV

Liver microsomes [2] = experiment: Metabolic stability in human liver microsomes assessed as high signal/noise ratio (S/N of >100) by measuring GSH adduct formation at 100 uM after 90 mins by HPLC-MS analysis; details: 1.5 h
CYP2C19 = CYP2C19 (Homo sapiens, UniProt P33261); experiment: Inhibition of human CYP2C19 assessed as ratio of IC50 in absence of NADPH to IC50 for presence of NADPH using 3-butyryl-7-methoxycoumarin as substrate after 30 mins
CYP2C19, sequence (P33261 whole entry): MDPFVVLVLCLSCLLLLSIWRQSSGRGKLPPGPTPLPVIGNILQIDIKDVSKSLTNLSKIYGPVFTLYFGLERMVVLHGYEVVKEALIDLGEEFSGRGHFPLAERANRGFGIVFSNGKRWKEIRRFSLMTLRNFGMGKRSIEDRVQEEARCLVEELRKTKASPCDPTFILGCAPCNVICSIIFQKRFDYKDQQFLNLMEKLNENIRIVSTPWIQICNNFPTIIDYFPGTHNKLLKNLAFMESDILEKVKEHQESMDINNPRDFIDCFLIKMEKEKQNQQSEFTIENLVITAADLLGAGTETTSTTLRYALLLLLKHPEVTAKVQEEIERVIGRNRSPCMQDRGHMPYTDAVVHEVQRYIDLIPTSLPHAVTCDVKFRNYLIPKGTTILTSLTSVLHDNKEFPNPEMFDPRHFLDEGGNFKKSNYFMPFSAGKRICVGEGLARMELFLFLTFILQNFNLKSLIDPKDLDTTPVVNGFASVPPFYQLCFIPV

CYP1A2 = molecular target: T1, CYP1A2 (Homo sapiens, UniProt P05177); experiment: Inhibition of human CYP1A2 assessed as ratio of IC50 in absence of NADPH to IC50 for presence of NADPH using ethoxyresorufin as substrate after 30 mins
T1 sequence (P05177 whole entry): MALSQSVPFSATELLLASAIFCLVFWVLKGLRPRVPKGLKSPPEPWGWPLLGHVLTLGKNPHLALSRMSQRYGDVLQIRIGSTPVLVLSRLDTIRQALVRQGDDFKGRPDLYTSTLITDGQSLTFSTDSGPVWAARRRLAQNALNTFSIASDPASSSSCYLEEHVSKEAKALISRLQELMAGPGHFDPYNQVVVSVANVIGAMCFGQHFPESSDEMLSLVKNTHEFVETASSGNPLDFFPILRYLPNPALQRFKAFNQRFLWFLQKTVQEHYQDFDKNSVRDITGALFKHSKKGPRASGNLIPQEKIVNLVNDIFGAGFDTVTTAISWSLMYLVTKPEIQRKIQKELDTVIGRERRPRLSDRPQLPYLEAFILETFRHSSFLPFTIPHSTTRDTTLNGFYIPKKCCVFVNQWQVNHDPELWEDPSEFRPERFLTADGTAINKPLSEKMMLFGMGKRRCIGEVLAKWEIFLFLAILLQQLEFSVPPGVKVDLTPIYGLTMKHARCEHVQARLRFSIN

CYP2D6 = CYP2D6 (Homo sapiens, UniProt P10635); experiment: Inhibition of human CYP2D6 assessed as ratio of IC50 in absence of NADPH to IC50 for presence of NADPH using 4-methylaminoethyl-7-methoxycoumarin as substrate after 30 mins
CYP2D6, sequence (P10635 whole entry): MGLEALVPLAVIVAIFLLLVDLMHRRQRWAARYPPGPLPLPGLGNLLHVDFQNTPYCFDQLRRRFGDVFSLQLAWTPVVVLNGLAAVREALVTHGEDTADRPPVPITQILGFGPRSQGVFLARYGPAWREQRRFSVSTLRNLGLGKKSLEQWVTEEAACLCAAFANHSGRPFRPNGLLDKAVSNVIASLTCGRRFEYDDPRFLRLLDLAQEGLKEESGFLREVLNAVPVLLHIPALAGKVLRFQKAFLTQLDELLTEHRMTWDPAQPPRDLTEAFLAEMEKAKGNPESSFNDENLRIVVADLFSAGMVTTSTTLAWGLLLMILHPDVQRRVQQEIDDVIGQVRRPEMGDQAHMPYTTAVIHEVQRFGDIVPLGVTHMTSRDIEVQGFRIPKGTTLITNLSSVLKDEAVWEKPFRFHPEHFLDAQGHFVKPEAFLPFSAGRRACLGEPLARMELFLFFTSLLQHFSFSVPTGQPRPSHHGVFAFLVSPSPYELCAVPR

Liver microsomes [3] = details: human, 1.5 h, 100 µM
Liver microsomes [4] = experiment: Metabolic stability in human liver microsomes assessed as low signal/noise ratio (S/N of 1 to 10) by measuring GSH adduct formation at 100 uM after 90 mins by HPLC-MS analysis; format: ADME, Microsome; details: 1.5 h
CYP3A4 [5] = molecular target: T2, CYP3A4 (Homo sapiens, UniProt P08684); experiment: Inhibition of human CYP3A4 assessed as ratio of IC50 in absence of NADPH to IC50 for presence of NADPH using diethoxyfluorescein as substrate after 30 mins
T2 sequence (P08684 whole entry): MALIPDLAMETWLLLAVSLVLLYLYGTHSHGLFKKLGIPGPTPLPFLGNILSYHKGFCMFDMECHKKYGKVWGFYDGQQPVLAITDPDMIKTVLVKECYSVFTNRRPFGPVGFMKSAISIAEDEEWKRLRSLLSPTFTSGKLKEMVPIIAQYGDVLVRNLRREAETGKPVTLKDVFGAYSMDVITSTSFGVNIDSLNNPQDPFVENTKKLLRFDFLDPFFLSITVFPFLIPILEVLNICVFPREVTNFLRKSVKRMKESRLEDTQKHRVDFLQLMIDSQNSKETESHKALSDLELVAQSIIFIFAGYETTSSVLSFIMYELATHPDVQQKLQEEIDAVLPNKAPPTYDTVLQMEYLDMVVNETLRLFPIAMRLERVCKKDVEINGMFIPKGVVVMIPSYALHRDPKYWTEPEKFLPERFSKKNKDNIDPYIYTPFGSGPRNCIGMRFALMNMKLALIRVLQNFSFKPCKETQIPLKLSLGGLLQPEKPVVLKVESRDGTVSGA

CYP3A4 [6] = molecular target: T2, CYP3A4; experiment: Inhibition of human CYP3A4 assessed as ratio of IC50 in absence of NADPH to IC50 for presence of NADPH using 7-benzyloxyquinoline as substrate after 30 mins
[7] = probe 4-methylaminoethyl-7-methoxycoumarin
[8] = probe 3-butyryl-7-methoxycoumarin
[9] = probe 7-methoxy-4-trifluoromethylcoumarin-3-acetic acid

## Oc1ccc2c3c1O[C@H]1[C@@H](O)CC[C@@]4(O)[C@@H](C2)N(CC2CCC2)CC[C@]314 [NALBUPHINE]
Liver microsomes [1]
  Stability: Stable
CYP2C9
  IC50 shift at 0.5 h: 2

## CCN(CC)CC#CCOC(=O)C(O)(c1ccccc1)C1CCCCC1 (centres undefined) [OXYBUTYNIN]
Liver microsomes [2]
  Stability: Unstable
CYP2C19
  IC50 shift at 0.5 h: > 5
CYP2C9
  IC50 shift at 0.5 h: < 2
CYP1A2
  IC50 shift at 0.5 h: > 2

## COc1ccc(CN(CCN(C)C)c2ccccn2)cc1 [PYRILAMINE]
CYP2D6; [7]
  IC50 shift at 0.5 h: 2
Liver microsomes [3]
  Stability: Unstable

## O=C(O)COc1ccc(C(=O)c2cccs2)c(Cl)c1Cl
CYP2C19
  IC50 shift at 0.5 h: < 2
Liver microsomes [1]
  Stability: Stable
CYP2C9
  IC50 shift at 0.5 h: 2

## O=C(OCC(O)CO)c1ccccc1Nc1ccnc2cc(Cl)ccc12 (centres undefined) [GLAFENINE]
Liver microsomes [4]
  Stability: Unstable

## CNCCC(Oc1ccc(C(F)(F)F)cc1)c1ccccc1 (centres undefined) [FLUOXETINE]
CYP2C19
  IC50 shift at 0.5 h: > 5
CYP3A4 [5]
  IC50 shift at 0.5 h: 2
Liver microsomes [1]
  Stability: Stable
CYP2C9
  IC50 shift at 0.5 h: 2
CYP3A4 [6]
  IC50 shift at 0.5 h: > 5

## CC(COc1ccccc1)N(CCCl)Cc1ccccc1 (centres undefined) [PHENOXYBENZAMINE]
Liver microsomes [2]
  Stability: Unstable
CYP2C19; [8]
  IC50 shift at 0.5 h: 2
CYP3A4 [5]; probe diethoxyfluorescein
  IC50 shift at 0.5 h: 2
CYP2C9; [9]
  IC50 shift at 0.5 h: < 2
CYP1A2; probe ethoxyresorufin
  IC50 shift at 0.5 h: 2

## CN1CCN(CCCN2c3ccccc3Sc3ccc(Cl)cc32)CC1 [PROCHLORPERAZINE]
Liver microsomes [4]
  Stability: Unstable

## Nc1c2c(nc3ccccc13)CCCC2 [TACRINE]
CYP2C19
  IC50 shift at 0.5 h: < 2
Liver microsomes [1]
  Stability: Stable
CYP2C9
  IC50 shift at 0.5 h: 2

## CC1=C(/C=C/C(C)=C/C=C/C(C)=C/C(=O)O)C(C)(C)CCC1 [TRETINOIN]
CYP2C19; [8]
  IC50 shift at 0.5 h: 2
CYP3A4 [5]; probe diethoxyfluorescein
  IC50 shift at 0.5 h: 2
Liver microsomes [1]
  Stability: Stable
CYP2D6; [7]
  IC50 shift at 0.5 h: 2
CYP3A4 [6]; probe 7-benzyloxyquinoline
  IC50 shift at 0.5 h: > 5
CYP1A2; probe ethoxyresorufin
  IC50 shift at 0.5 h: < 2

## CC1(C)[C@@H](O)CC[C@]2(C)[C@H]3C(=O)C=C4[C@@H]5C[C@@](C)(C(=O)O)CC[C@]5(C)CC[C@@]4(C)[C@]3(C)CC[C@@H]12 [ENOXOLONE]
Liver microsomes [1]
  Stability: Stable
CYP1A2; probe ethoxyresorufin
  IC50 shift at 0.5 h: 2

## Nc1ccc(S(=O)(=O)c2ccc(N)cc2)cc1 [DAPSONE]
Liver microsomes [4]
  Stability: Unstable

## CC(C)OC(=O)C(C)(C)Oc1ccc(C(=O)c2ccc(Cl)cc2)cc1 [FENOFIBRATE]
CYP2C19
  IC50 shift at 0.5 h: < 2
CYP3A4 [5]
  IC50 shift at 0.5 h: < 2
Liver microsomes [1]
  Stability: Stable
CYP2D6
  IC50 shift at 0.5 h: 2
CYP1A2
  IC50 shift at 0.5 h: > 5

## CC/C(=C(/CC)c1ccc(O)cc1)c1ccc(O)cc1 [DIETHYLSTILBESTROL]
Liver microsomes [2]
  Stability: Unstable
CYP1A2
  IC50 shift at 0.5 h: 2

## NNC(=O)c1ccncc1 [ISONIAZID]
CYP2C19
  IC50 shift at 0.5 h: > 5
CYP3A4 [5]
  IC50 shift at 0.5 h: > 5
Liver microsomes [1]
  Stability: Stable
CYP2D6
  IC50 shift at 0.5 h: > 5
CYP3A4 [6]
  IC50 shift at 0.5 h: > 5

## C[C@]12C=CC(=O)C=C1CC[C@@H]1[C@@H]2C(=O)C[C@@]2(C)[C@H]1CC[C@]2(O)C(=O)CO [PREDNISONE]
Liver microsomes [4]
  Stability: Unstable

## N[C@@H](Cc1cc(I)c(Oc2ccc(O)c(I)c2)c(I)c1)C(=O)O [LIOTHYRONINE]
Liver microsomes [4]
  Stability: Unstable

## Cc1c2oc3c(C)ccc(C(=O)N[C@@H]4C(=O)N[C@H](C(C)C)C(=O)N5CCC[C@H]5C(=O)N(C)CC(=O)N(C)[C@@H](C(C)C)C(=O)O[C@@H]4C)c3nc-2c(C(=O)N[C@@H]2C(=O)N[C@H](C(C)C)C(=O)N3CCC[C@H]3C(=O)N(C)CC(=O)N(C)[C@@H](C(C)C)C(=O)O[C@@H]2C)c(N)c1=O [DACTINOMYCIN] (I: T[dV]P[Sar][NMeV] / II: T[dV]P[Sar][NMeV]; ester I:1-I:C, II:1-II:C; linker I:N-II:N via Actinocin(9to1))
CYP2C19; [8]
  IC50 shift at 0.5 h: < 2
Liver microsomes [1]
  Stability: Stable
CYP2C9; [9]
  IC50 shift at 0.5 h: 2
CYP3A4 [6]; probe 7-benzyloxyquinoline
  IC50 shift at 0.5 h: 2

## COc1cc2c(c(OC)c1OC)-c1ccc(OC)c(=O)cc1[C@@H](NC(C)=O)CC2 [COLCHICINE]
Liver microsomes [4]
  Stability: Unstable

## CC(C)C(=O)Nc1ccc([N+](=O)[O-])c(C(F)(F)F)c1 [FLUTAMIDE]
CYP3A4 [5]
  IC50 shift at 0.5 h: < 2
CYP2D6
  IC50 shift at 0.5 h: < 2
CYP1A2
  IC50 shift at 0.5 h: < 2
Liver microsomes [3]
  Stability: Unstable

## Clc1ccccc1C(c1ccccc1)(c1ccccc1)n1ccnc1 [CLOTRIMAZOLE]
Liver microsomes [1]
  Stability: Stable
CYP2D6
  IC50 shift at 0.5 h: < 2
CYP1A2
  IC50 shift at 0.5 h: 2

## C[N+]1(C)[C@@H]2CC[C@H]1C[C@@H](OC(=O)C(O)c1ccccc1)C2 (some centres undefined) [HOMATROPINE METHYLBROMIDE]
CYP2D6; [7]
  IC50 shift at 0.5 h: < 2

## C1CCC(C(CC2CCCCN2)C2CCCCC2)CC1 (centres undefined) [PERHEXILINE]
CYP2C9
  IC50 shift at 0.5 h: < 2

## Oc1ccc2c(c1)[C@@]13CCCC[C@@]1(O)[C@@H](C2)N(CC1CCC1)CC3 [BUTORPHANOL]
Liver microsomes [1]
  Stability: Stable
CYP2D6; [7]
  IC50 shift at 0.5 h: < 2

## NNCCc1ccccc1 [PHENELZINE]
CYP2C19
  IC50 shift at 0.5 h: > 5
CYP3A4 [5]
  IC50 shift at 0.5 h: 2
CYP2D6
  IC50 shift at 0.5 h: > 5
CYP2C9
  IC50 shift at 0.5 h: 2
CYP1A2
  IC50 shift at 0.5 h: 2
Liver microsomes [3]
  Stability: Unstable

## CCOC(=O)n1ccn(C)c1=S [CARBIMAZOLE]
Liver microsomes [2]
  Stability: Unstable
CYP3A4 [5]
  IC50 shift at 0.5 h: > 5
CYP2D6
  IC50 shift at 0.5 h: > 5
CYP3A4 [6]
  IC50 shift at 0.5 h: > 5

## COCCCC/C(=N\OCCN)c1ccc(C(F)(F)F)cc1 [FLUVOXAMINE]
Liver microsomes [2]
  Stability: Unstable
CYP2D6; [7]
  IC50 shift at 0.5 h: 2
CYP1A2; probe ethoxyresorufin
  IC50 shift at 0.5 h: < 2

## CCN(CC)CCNc1ccc(CO)c2sc3ccccc3c(=O)c12 [HYCANTHONE]
Liver microsomes [2]
  Stability: Unstable
CYP3A4 [5]
  IC50 shift at 0.5 h: 2
CYP1A2
  IC50 shift at 0.5 h: > 5

## CS(=O)(=O)Nc1ccc([N+](=O)[O-])cc1Oc1ccccc1 [NIMESULIDE]
Liver microsomes [4]
  Stability: Unstable
CYP3A4 [5]
  IC50 shift at 0.5 h: 2
CYP3A4 [6]
  IC50 shift at 0.5 h: < 2

## C[C@](N)(Cc1ccc(O)c(O)c1)C(=O)O [METHYLDOPA]
Liver microsomes [4]
  Stability: Unstable

## CC(c1cc2ccccc2s1)N(O)C(N)=O (centres undefined) [ZILEUTON]
Liver microsomes [1]
  Stability: Stable
CYP1A2; probe ethoxyresorufin
  IC50 shift at 0.5 h: > 5

## CC(=O)N1CCN(c2ccc(OCC3COC(Cn4ccnc4)(c4ccc(Cl)cc4Cl)O3)cc2)CC1 (centres undefined) [KETOCONAZOLE]
Liver microsomes [4]
  Stability: Unstable

## Nc1ccc(S(=O)(=O)Nc2ccnn2-c2ccccc2)cc1 [SULFAPHENAZOLE]
Liver microsomes [4]
  Stability: Unstable
